We go through nine molecules from ChEMBL document CHEMBL1201862, “PubChem BioAssay data set” (2004).

Some test systems named below: PC-3; A498; MOLT-4; SK-MEL-2; HCT-116; SF-268; T47D; SK-MEL-5; HCT-15; IGROV-1; Malme-3M; HT-29; OVCAR-3; UACC-257; NCI-H226; 786-0; KM12; NCI-H522; OVCAR-4; ACHN.
Holding throughout (test): NCI anticancer screen, dose series, 48 h

Each structure is given as a SMILES string.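 Method: 48-hour compound exposure of cells in 96-well plates, five concentrations, linear interpolation of endpoints. The concentration for 50% growth inhibition is given as GI50.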 Calls of active or inactive are those of the source. No stated cut-off is given here; in the data, active = GI50 up to about 1.1 µM and inactive = higher.

`O=C(O)CSCc1cccc2ccccc12`: the GI50 in the experiment on PC-3, in the experiment on A498, in the experiment on MOLT-4, in the experiment with SK-MEL-2, in the experiment with HCT-116 and in the experiment with SF-268 was > 100 µM (inactive) throughout. The GI50 in the experiment with T47D was > 100 µM (inactive); in the experiment with SK-MEL-5, > 100 µM (inactive); with HCT-15, > 100 µM; in the experiment with IGROV-1 it was > 100 µM (inactive); in the experiment on Malme-3M, > 100 µM (inactive); in the experiment on HT-29, > 100 µM (inactive). Further, the GI50 was > 100 µM (inactive) in the experiment with OVCAR-3; 62.1 µM (inactive) in the experiment with UACC-257; > 100 µM (inactive) in the experiment with NCI-H226; > 100 µM (inactive) in the experiment on 786-0; > 100 µM (inactive) in the experiment on KM12; > 100 µM (inactive) with NCI-H522. Moreover, the GI50 in the experiment with OVCAR-4 and with ACHN was > 100 µM (inactive) each time.

Consider `C=C1CC[C@@H]2[C@](C)(COC(=O)CCC(=O)O)CCC[C@@]2(C)[C@@H]1CCC1=CC(=O)OC1`, for which the GI50 in the experiment on PC-3, with A498, in the experiment with MOLT-4, in the experiment with SK-MEL-2, in the experiment with HCT-116 and in the experiment on SF-268 was > 100 µM (inactive) each time. The GI50 was > 100 µM (inactive) in the experiment with T47D; 42.9 µM (inactive) in the experiment on SK-MEL-5; > 100 µM in the experiment on HCT-15; > 100 µM (inactive) with IGROV-1; > 100 µM (inactive) with Malme-3M; > 100 µM (inactive) with HT-29. Moreover, the GI50 with OVCAR-3, in the experiment with UACC-257, in the experiment on NCI-H226, in the experiment on 786-0, in the experiment with KM12 and with NCI-H522 was > 100 µM (inactive) in each case. The GI50 with OVCAR-4 and in the experiment with ACHN was > 100 µM (inactive) in each case.

`COC(CN(C=O)[C@@H](c1ccc(Cl)cc1)c1cc2ccccc2o1)OC`: the GI50 with PC-3 was 17.3 µM (inactive); in the experiment on A498 it was 18.9 µM (inactive); in the experiment on MOLT-4, 17.8 µM (inactive); in the experiment on SK-MEL-2, 16.7 µM (inactive); with HCT-116, 15.8 µM (inactive); in the experiment with SF-268 it was 15.3 µM (inactive). The GI50 with T47D is 11.6 µM (inactive); in the experiment with SK-MEL-5, 15.5 µM (inactive); in the experiment with HCT-15 it was 17 µM; in the experiment with IGROV-1, 14.8 µM (inactive); in the experiment on Malme-3M, 0.397 µM (active); in the experiment on HT-29, 17.1 µM (inactive). For the same molecule, the GI50 in the experiment on OVCAR-3 was 12.7 µM (inactive); in the experiment with UACC-257 it was 14 µM (inactive); in the experiment with NCI-H226, 18.1 µM (inactive); in the experiment on 786-0, 23.6 µM (inactive); with KM12, 11.1 µM (inactive); in the experiment on NCI-H522, 14.5 µM (inactive). Besides, the values for the GI50 with OVCAR-4 and in the experiment with ACHN were 19.2 µM (inactive) and 20.8 µM (inactive), respectively.

For `Oc1ccc(Cl)cc1-c1nc(S)nc(-c2ccccc2)c1Cl`, the GI50 with PC-3 is > 100 µM (inactive); in the experiment on A498, 51.9 µM (inactive); in the experiment with MOLT-4, > 100 µM (inactive); in the experiment with SK-MEL-2, 69.8 µM (inactive); with HCT-116 it was > 96.4 µM (inactive); with SF-268, > 64.3 µM (inactive). Moreover, the GI50 in the experiment with T47D is > 100 µM (inactive); with SK-MEL-5, > 61.7 µM (inactive); with HCT-15, > 100 µM; in the experiment with IGROV-1, 72.4 µM (inactive); with Malme-3M, > 100 µM (inactive); in the experiment on HT-29, > 31.6 µM (inactive). Further, the GI50 in the experiment on OVCAR-3 is > 100 µM (inactive); with UACC-257 it was > 100 µM (inactive); in the experiment on NCI-H226, > 100 µM (inactive); in the experiment with 786-0 it was 34.7 µM (inactive); with KM12, > 100 µM (inactive); in the experiment with NCI-H522 it was > 31.6 µM (inactive). For the same molecule, the GI50 with OVCAR-4 is > 100 µM (inactive); with ACHN, > 90.8 µM (inactive).

Consider `CC(NNC(=O)c1ccncc1)c1ccc(Cl)c(Cl)c1` (stereo not given), for which the GI50 was 71.3 µM (inactive) with PC-3; 69.3 µM (inactive) in the experiment with A498; 48.9 µM (inactive) in the experiment on MOLT-4; > 100 µM (inactive) in the experiment with SK-MEL-2; > 100 µM (inactive) in the experiment on HCT-116; > 100 µM (inactive) in the experiment on SF-268. The GI50 with T47D was 66.4 µM (inactive); in the experiment with SK-MEL-5, > 100 µM (inactive); in the experiment on HCT-15, > 100 µM; in the experiment with IGROV-1, > 100 µM (inactive); with Malme-3M, > 100 µM (inactive); in the experiment on HT-29, > 100 µM (inactive). Also, the GI50 in the experiment on OVCAR-3, in the experiment with UACC-257, in the experiment on NCI-H226, in the experiment with 786-0, in the experiment with KM12 and in the experiment on NCI-H522 was > 100 µM (inactive) in each case. The GI50 in the experiment with OVCAR-4 and in the experiment with ACHN was > 100 µM (inactive) each time.

Regarding `C[C@]12CC[C@H]3[C@@H](CCC4=CC(=O)CC[C@@H]43)[C@@H]1CC[C@]2(O)C(N)=O`, the GI50 with PC-3, with A498, with MOLT-4, in the experiment on SK-MEL-2, in the experiment with HCT-116 and in the experiment with SF-268 was > 100 µM (inactive) in each case. Moreover, the GI50 is > 100 µM (inactive) with T47D; > 100 µM (inactive) in the experiment with SK-MEL-5; > 100 µM in the experiment on HCT-15; > 100 µM (inactive) in the experiment with IGROV-1; > 100 µM (inactive) in the experiment with Malme-3M; > 100 µM (inactive) in the experiment with HT-29. Also, the GI50 in the experiment with OVCAR-3, in the experiment on UACC-257, with NCI-H226, in the experiment on 786-0, with KM12 and with NCI-H522 was > 100 µM (inactive) in each case. Also, the GI50 in the experiment with OVCAR-4 and in the experiment on ACHN was > 100 µM (inactive) in each case.

Take `CC1=NN(C(=O)CC(=O)Nc2ccc(Cl)cc2)C(=O)C1/N=N\c1ccc(S(=O)(=O)c2ccc(/N=N/C3C(=O)N(C(=O)CC(=O)Nc4ccc(Cl)cc4)N=C3C)cc2)cc1` (stereo not given): the GI50 in the experiment with PC-3 is > 100 µM (inactive); in the experiment on A498, > 100 µM (inactive); in the experiment on MOLT-4 it was > 100 µM (inactive); with SK-MEL-2 it was 51.9 µM (inactive); in the experiment with HCT-116, > 100 µM (inactive); in the experiment on SF-268 it was > 100 µM (inactive). The GI50 in the experiment with T47D is > 100 µM (inactive); in the experiment on SK-MEL-5 it was 95.7 µM (inactive); in the experiment with HCT-15, 60.8 µM; with IGROV-1 it was > 100 µM (inactive); with Malme-3M it was > 100 µM (inactive); with HT-29, > 100 µM (inactive). In addition, the GI50 in the experiment with OVCAR-3, with UACC-257, with NCI-H226, with 786-0, in the experiment on KM12 and with NCI-H522 was > 100 µM (inactive) each time. For the same molecule, the GI50 in the experiment with OVCAR-4 was > 100 µM (inactive); in the experiment on ACHN it was 24.7 µM (inactive).

Regarding `O=C1/C(=C/c2cc3c(=O)c4ccccc4sc3s2)NC(=S)N1c1ccccc1`, the GI50 was > 100 µM (inactive) in the experiment with PC-3; > 100 µM (inactive) with A498; 24.5 µM (inactive) in the experiment with MOLT-4; 78.7 µM (inactive) with SK-MEL-2; 40.4 µM (inactive) in the experiment with HCT-116; 55 µM (inactive) with SF-268. For the same molecule, the GI50 in the experiment on T47D was > 100 µM (inactive); in the experiment with SK-MEL-5, 91.2 µM (inactive); in the experiment on HCT-15, > 100 µM; in the experiment on IGROV-1, > 100 µM (inactive); in the experiment with Malme-3M, > 100 µM (inactive); in the experiment on HT-29, > 100 µM (inactive). The GI50 with OVCAR-3 was > 100 µM (inactive); in the experiment on UACC-257, > 100 µM (inactive); in the experiment with NCI-H226, > 100 µM (inactive); in the experiment with 786-0, 23.7 µM (inactive); in the experiment on KM12 it was > 100 µM (inactive); in the experiment on NCI-H522, > 100 µM (inactive). Further, the GI50 with OVCAR-4 and with ACHN was > 100 µM (inactive) throughout.

In the case of `CNC1C(OC2C(OC3C(O)C(O)C(O)C(O)C3O)OC(C)C2(O)CO)OC(CO)C(O)C1O.N=C(N)N.NC(=O)O` (stereo not given), the GI50 in the experiment on PC-3, in the experiment on A498, in the experiment with MOLT-4, with SK-MEL-2, in the experiment with HCT-116 and in the experiment on SF-268 was > 100 µM (inactive) throughout. Besides, the GI50 was > 100 µM (inactive) in the experiment with T47D; > 100 µM (inactive) in the experiment with SK-MEL-5; > 100 µM in the experiment on HCT-15; > 100 µM (inactive) in the experiment with IGROV-1; > 100 µM (inactive) in the experiment on Malme-3M; > 100 µM (inactive) with HT-29. In addition, the GI50 in the experiment on OVCAR-3, in the experiment on UACC-257, in the experiment on NCI-H226, in the experiment with 786-0, with KM12 and with NCI-H522 was > 100 µM (inactive) each time. For the same molecule, the GI50 in the experiment on OVCAR-4 and in the experiment on ACHN was > 100 µM (inactive) each time.
